Assay results: the NIST ThermoML archive (doi:10.1016/j.jct.2017.03.006)

Test: xn = mol fraction of the nth substance listed
Conditions: 293.15 K, Liquid, Vibrating tube method

Cc1ccc(C)c(C)c1 [1,2,4-trimethylbenzene] + CCC(C)O
mass density [kg/m3]
Conditions | x2 = 0 | x2 = 0.1 | x2 = 0.1989 | x2 = 0.3011 | x2 = 0.4002 | x2 = 0.5001 | x2 = 0.5997 | x2 = 0.6999 | x2 = 0.7999 | x2 = 0.9
100 kPa | – | – | 863.6 | 857.4 | 851.4 | 845 | 838.2 | 831.1 | 823.6 | 815.3
1000 kPa | 875.7 | 869.9 | 864.2 | 858 | 852 | 845.6 | 838.9 | 831.8 | 824.3 | 816
2000 kPa | 876.3 | 870.6 | 864.9 | 858.8 | 852.8 | 846.4 | 839.7 | 832.6 | 825 | 816.8
5000 kPa | 878.2 | 872.7 | 867 | 860.9 | 854.9 | 848.5 | 841.9 | 834.8 | 827.3 | 819.1
10000 kPa | 881.4 | 875.9 | 870.3 | 864.2 | 858.3 | 852 | 845.4 | 838.3 | 830.9 | 822.7
15000 kPa | 884.4 | 879 | 873.4 | 867.5 | 861.6 | 855.3 | 848.7 | 841.7 | 834.3 | 826.1
20000 kPa | 887.3 | 882.1 | 876.5 | 870.6 | 864.7 | 858.5 | 851.9 | 845 | 837.6 | 829.5
30000 kPa | 892.9 | 887.9 | 882.4 | 876.6 | 870.8 | 864.6 | 858.1 | 851.2 | 843.9 | 835.8
40000 kPa | 898.2 | 893.4 | 888 | 882.2 | 876.5 | 870.4 | 863.9 | 857 | 849.7 | 841.7
50000 kPa | 903.2 | 898.6 | 893.2 | 887.5 | 881.8 | 875.7 | 869.3 | 862.5 | 855.2 | 847.2
60000 kPa | 908 | 903.6 | 898.3 | – | – | – | – | – | – | –
